From paper PMC7859335, “Discovery of Diaryl Ether Substituted Tetrahydrophthalazinones as TbrPDEB1 Inhibitors Following Structure-Based Virtual Screening” (Frontiers in Chemistry, 2021)

Target: T1, TbrPDEB1 (Trypanosoma brucei, UniProt Q8WQX9)
T1 construct: The TbrPDEB1 catalytic domain phosphodiesterase activity assays were conducted based on a method reported by Sijm et al
T1 sequence (Q8WQX9 565-918 limits assumed): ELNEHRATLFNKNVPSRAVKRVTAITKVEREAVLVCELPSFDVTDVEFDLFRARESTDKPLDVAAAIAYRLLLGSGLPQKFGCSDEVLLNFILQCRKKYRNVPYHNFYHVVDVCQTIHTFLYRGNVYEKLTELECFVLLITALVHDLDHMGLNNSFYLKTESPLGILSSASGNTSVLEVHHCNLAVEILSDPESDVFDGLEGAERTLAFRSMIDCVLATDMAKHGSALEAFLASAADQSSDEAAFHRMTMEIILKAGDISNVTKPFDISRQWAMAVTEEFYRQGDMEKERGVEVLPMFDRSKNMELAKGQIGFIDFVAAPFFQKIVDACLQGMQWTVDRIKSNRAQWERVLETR
Test: TbrPDEB1 catalytic domain phosphodiesterase activity assay (PDELight HTS cAMP kit)
Format: biochemical
Conditions: single point assay at 10 μM inhibitor; for inhibition at 10 µM: read-out: TbrPDEB1 (% inh.)
Experimental: The TbrPDEB1 catalytic domain phosphodiesterase activity assays were conducted based on a method reported by Sijm et al. ([2019]) with minor adaptations (Sijm et al., [2019]). The PDELight™ HTS cAMP phosphodiesterase Kit (Lonza, Walkersville, USA) was performed at 25°C in non-binding, low volume 384-well plates (Corning, Kennebunk, ME, USA). […] Single concentration measurements were made at 10 μM inhibitor concentration (triplo measurements/assay, n = 2). Dose-response curves were made in the range 100 μM−10 pM (triplo measurements/assay, n = 3). Compounds were diluted in DMSO (final in-test concentration 1%). Inhibitor dilutions (2.5 μL) were transferred to the 384-well plates, 2.5 μL of PDE in stimulation buffer was added and mixed, 5 μL of cAMP (at 2 × Km up to 20 μM) added and the assay mixture was incubated for 20 min at 300 rpm. […] Then, 5 μL of Lonza Detection reagent (diluted to 80% with reaction buffer) was added and the reaction incubated for 10 min at 300 rpm. Luminescence was read with a Victor3 luminometer using a 0.1 s/well program.
The Ki values of the inhibitors analyzed are represented as the mean of at least three independent experiments with the associated standard error of the mean (S.E.M.).

| SMILES | TbrPDEB1 (% inh.) | inhibition at 10 µM [%] |
| --- | --- | --- |
| CCCCNC(=O)c1ccc(Oc2cc(C3=NN(C(C)C)C(=O)[C@@H]4CC=CC[C@H]34)ccc2OC)nc1 (relative stereo) [3r, N-Butyl-6-(5-(cis-3-isopropyl-4-oxo-3,4,4a,5,8,8a-hexahydrophthalazin-1-yl)-2-methoxyphenoxy)nicotinamide] | No inhibition | – |
| COc1ccc(C2=NN(C(C)C)C(=O)[C@H]3CC=CC[C@@H]23)cc1Oc1cc(N2CCOCC2)ncn1 (relative stereo) [2f, cis-2-Isopropyl-4-(4-methoxy-3-((6-morpholinopyrimidin-4-yl)oxy)phenyl)-4a,5,8,8a-tetrahydrophthalazin-1(2H)-one] | – | 11 ± 8 |
| COc1ccc(C2=NN(C(C)C)C(=O)[C@@H]3CC=CC[C@H]23)cc1Oc1cc(C(=O)NCc2ccco2)ccn1 (relative stereo) [3u, N-(Furan-2-ylmethyl)-2-(5-(cis-3-isopropyl-4-oxo-3,4,4a,5,8,8a-hexahydrophthalazin-1-yl)-2-methoxyphenoxy)isonicotinamide] | No inhibition | – |
| COc1ccc(C2=NN(C(C)C)C(=O)[C@H]3CC=CC[C@@H]23)cc1Oc1nccn2cnnc12 (relative stereo) [2l, cis-4-(3-([1,2,4]Triazolo[4,3-a]pyrazin-8-yloxy)-4-methoxyphenyl)-2-isopropyl-4a,5,8,8a-tetrahydrophthalazin-1(2H)-one] | No inhibition | – |
| COc1ccc(C2=NN(C(C)C)C(=O)[C@@H]3CC=CC[C@H]23)cc1Oc1ncccc1C(=O)O (relative stereo) [3e, 2-(5-(cis-3-Isopropyl-4-oxo-3,4,4a,5,8,8a-hexahydrophthalazin-1-yl)-2-methoxyphenoxy)nicotinic acid] | No inhibition | – |
| COc1ccc(C2=NN(C(C)C)C(=O)[C@@H]3CC=CC[C@H]23)cc1Oc1ccc(C(=O)NCc2ccco2)cn1 (relative stereo) [3v, N-(Furan-2-ylmethyl)-6-(5-(cis-3-isopropyl-4-oxo-3,4,4a,5,8,8a-hexahydrophthalazin-1-yl)-2-methoxyphenoxy)nicotinamide] | No inhibition | – |
| CCCCNC(=O)c1ccnc(Oc2cc(C3=NN(C(C)C)C(=O)[C@@H]4CC=CC[C@H]34)ccc2OC)c1 (relative stereo) [3q, N-Butyl-2-(5-(cis-3-isopropyl-4-oxo-3,4,4a,5,8,8a-hexahydrophthalazin-1-yl)-2-methoxyphenoxy)isonicotinamide] | No inhibition | – |
| COc1ccc(C2=NN(C(C)C)C(=O)[C@H]3CC=CC[C@@H]23)cc1Oc1nccs1 (relative stereo) [2a, cis-2-Isopropyl-4-(4-methoxy-3-(thiazol-2-yloxy)phenyl)-4a,5,8,8a-tetrahydrophthalazin-1(2H)-one] | – | 12 ± 3 |
| COc1ccc(C2=NN(C(C)C)C(=O)[C@@H]3CC=CC[C@H]23)cc1Oc1cccc(C(=O)NCC(N)=O)n1 (relative stereo) [3o, N-(2-Amino-2-oxoethyl)-6-(5-(cis-3-isopropyl-4-oxo-3,4,4a,5,8,8a-hexahydrophthalazin-1-yl)-2-methoxyphenoxy)picolinamide] | – | 40 ± 1 |
| COc1ccc(C2=NN(C(C)C)C(=O)[C@@H]3CC=CC[C@H]23)cc1Oc1cnc(C(N)=O)cn1 (relative stereo) [2e, 5-(5-(cis-3-Isopropyl-4-oxo-3,4,4a,5,8,8a-hexahydrophthalazin-1-yl)-2-methoxyphenoxy)pyrazine-2-carboxamide] | – | 18 ± 9 |
| COC(=O)c1cccnc1Oc1cc(C2=NN(C(C)C)C(=O)[C@@H]3CC=CC[C@H]23)ccc1OC (relative stereo) [3a, Methyl 2-(5-(cis-3-isopropyl-4-oxo-3,4,4a,5,8,8a-hexahydrophthalazin-1-yl)-2-methoxyphenoxy)nicotinate] | No inhibition | – |
| COc1ccc(C2=NN(C(C)C)C(=O)[C@@H]3CC=CC[C@H]23)cc1Oc1cc(C(=O)O)ccn1 (relative stereo) [3f, 2-(5-(cis-3-Isopropyl-4-oxo-3,4,4a,5,8,8a-hexahydrophthalazin-1-yl)-2-methoxyphenoxy)isonicotinic acid] | No inhibition | – |
| COc1ccc(C2=NN(C(C)C)C(=O)[C@@H]3CC=CC[C@H]23)cc1Oc1cc(C(N)=O)ccn1 (relative stereo) [3j, 2-(5-(cis-3-Isopropyl-4-oxo-3,4,4a,5,8,8a-hexahydrophthalazin-1-yl)-2-methoxyphenoxy)isonicotinamide] | No inhibition | – |
| COc1ccc(C2=NN(C(C)C)C(=O)[C@@H]3CC=CC[C@H]23)cc1Oc1cccc(C(=O)O)n1 (relative stereo) [3h, 6-(5-(cis-3-Isopropyl-4-oxo-3,4,4a,5,8,8a-hexahydrophthalazin-1-yl)-2-methoxyphenoxy)picolinic acid] | No inhibition | – |
| COc1ccc(C2=NN(C(C)C)C(=O)[C@@H]3CC=CC[C@H]23)cc1Oc1cccc(C#N)n1 (relative stereo) [3d, 6-(5-(cis-3-Isopropyl-4-oxo-3,4,4a,5,8,8a-hexahydrophthalazin-1-yl)-2-methoxyphenoxy)picolinonitrile] | – | 36 ± 6 |
| COc1ccc(C2=NN(C(C)C)C(=O)[C@@H]3CC=CC[C@H]23)cc1Oc1ccc(C(=O)O)cn1 (relative stereo) [3g, 6-(5-(cis-3-Isopropyl-4-oxo-3,4,4a,5,8,8a-hexahydrophthalazin-1-yl)-2-methoxyphenoxy)nicotinic acid] | – | 11 ± 6 |
| COc1ccc(C2=NN(C(C)C)C(=O)[C@@H]3CC=CC[C@H]23)cc1Oc1ncccc1C(=O)NCc1ccco1 (relative stereo) [3t, N-(Furan-2-ylmethyl)-2-(5-(cis-3-isopropyl-4-oxo-3,4,4a,5,8,8a-hexahydrophthalazin-1-yl)-2-methoxyphenoxy)nicotinamide] | No inhibition | – |
| COc1ccc(C2=NN(C(C)C)C(=O)[C@H]3CC=CC[C@@H]23)cc1Oc1ncnc2sccc12 (relative stereo) [2k, cis-2-Isopropyl-4-(4-methoxy-3-(thieno[2,3-d]pyrimidin-4-yloxy)phenyl)-4a,5,8,8a-tetrahydrophthalazin-1(2H)-one] | No inhibition | – |
| COc1ccc(C2=NN(C(C)C)C(=O)[C@@H]3CC=CC[C@H]23)cc1Oc1cc(C#N)ccn1 (relative stereo) [3b, 2-(5-(cis-3-Isopropyl-4-oxo-3,4,4a,5,8,8a-hexahydrophthalazin-1-yl)-2-methoxyphenoxy)isonicotinonitrile] | No inhibition | – |
| COc1ccc(C2=NN(C(C)C)C(=O)[C@@H]3CC=CC[C@H]23)cc1Oc1cc(C(=O)NCC(N)=O)ccn1 (relative stereo) [3m, N-(2-Amino-2-oxoethyl)-2-(5-(cis-3-isopropyl-4-oxo-3,4,4a,5,8,8a-hexahydrophthalazin-1-yl)-2-methoxyphenoxy)isonicotinamide] | – | 27 |
| CCCCNC(=O)c1cccnc1Oc1cc(C2=NN(C(C)C)C(=O)[C@@H]3CC=CC[C@H]23)ccc1OC (relative stereo) [3p, N-Butyl-2-(5-(cis-3-isopropyl-4-oxo-3,4,4a,5,8,8a-hexahydrophthalazin-1-yl)-2-methoxyphenoxy)nicotinamide] | No inhibition | – |
| COc1ccc(C2=NN(C(C)C)C(=O)[C@H]3CC=CC[C@@H]23)cc1Oc1ncc(CN2CCOCC2)s1 (relative stereo) [2c, cis-2-Isopropyl-4-(4-methoxy-3-((5-(morpholinomethyl)thiazol-2-yl)oxy)phenyl)-4a,5,8,8a-tetrahydrophthalazin-1(2H)-one] | – | 40 ± 4 |
| COc1ccc(C2=NN(C(C)C)C(=O)[C@@H]3CC=CC[C@H]23)cc1Oc1ncccc1C(N)=O (relative stereo) [3i, 2-(5-(cis-3-Isopropyl-4-oxo-3,4,4a,5,8,8a-hexahydrophthalazin-1-yl)-2-methoxyphenoxy)nicotinamide] | No inhibition | – |
| COc1ccc(C2=NN(C(C)C)C(=O)[C@H]3CC=CC[C@@H]23)cc1Oc1nccc2sccc12 (relative stereo) [2j, cis-2-Isopropyl-4-(4-methoxy-3-(thieno[3,2-c]pyridin-4-yloxy)phenyl)-4a,5,8,8a-tetrahydrophthalazin-1(2H)-one] | No inhibition | – |
| COc1ccc(C2=NN(C(C)C)C(=O)[C@@H]3CC=CC[C@H]23)cc1Oc1ccc(C(=O)NCC(N)=O)cn1 (relative stereo) [3n, N-(2-Amino-2-oxoethyl)-6-(5-(cis-3-isopropyl-4-oxo-3,4,4a,5,8,8a-hexahydrophthalazin-1-yl)-2-methoxyphenoxy)nicotinamide] | – | 5 ± 1 |
